The values that follow come from the supplement of paper PMC8967900.

Among the test systems are COG-LL-332h; MHH-CALL-3; PEER.
Common to all, as to test: selective drug sensitivity score (sDSS, relative to normal bone marrow) (sDSS (score)); higher = more potent and effective on the cell line relative to normal bone marrow cells
What all share (conditions): 72 h

The structures appear in SMILES notation.
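Note: ALL cell lines in 384-well plates, five doses spanning 10,000-fold, each plate scaled between vehicle and 100 µmol/L benzalkonium chloride controls, sDSS an adapted area-under-curve metric.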

In the case of `COc1ccc(C[C@H](NC(=O)[C@H](C)NC(=O)CN2CCOCC2)C(=O)N[C@@H](Cc2ccccc2)C(=O)[C@@]2(C)CO2)cc1` [ONX-0914] (top concentration 10000 nM), the “selective drug sensitivity score” value in the assay on COG-LL-332h was found to be 2.2; with MHH-CALL-3, 7.2; with PEER, 7.7.
In the same order, the values of `CC(=O)c1cnc2ccc(-c3cc(Cl)c(O)c(Cl)c3)nc2c1N[C@H]1CC[C@H](CN(C)C)CC1` [OTS167] (top concentration 1000 nM) are 3.78, -1.02 and 1.78.
In the case of `COC(=O)C[C@](O)(CCCC(C)(C)O)C(=O)O[C@@H]1C(OC)=C[C@]23CCCN2CCc2cc4c(cc2[C@H]13)OCO4` [Omacetaxine] (top concentration 10000 nM), the “selective drug sensitivity score” value was 2.62 in the assay with COG-LL-332h, 15.6 with MHH-CALL-3 and -1.88 with PEER.
For the compound `C1=N/C2=N/c3ccc(OCCN4CCCC4)c(c3)COC/C=C/COCc3cccc(c3)C(=C1)N2` [Pacritinib] (top concentration 10000 nM), the “selective drug sensitivity score” value was -4.1 in the assay with COG-LL-332h, -7.7 with MHH-CALL-3 and -5.6 in the assay with PEER.
In the same order, the values of `Cc1[nH]c2ccccc2c1CCNCc1ccc(/C=C/C(=O)NO)cc1` [Panobinostat] (top concentration 1000 nM) are 3.64, 15.6 and 4.34.
With `Cc1ccc(Nc2nccc(N(C)c3ccc4c(C)n(C)nc4c3)n2)cc1S(N)(=O)=O` [Pazopanib] (top concentration 10000 nM), the “selective drug sensitivity score” value in the assay with COG-LL-332h is 0.14; in the assay on MHH-CALL-3, -1.26; with PEER, 2.84.
Regarding `Nc1nc2[nH]cc(CCc3ccc(C(=O)N[C@@H](CCC(=O)O)C(=O)O)cc3)c2c(=O)[nH]1` [Pemetrexed] (top concentration 10000 nM), the “selective drug sensitivity score” value with COG-LL-332h is 21.9; in the assay on MHH-CALL-3, 13.5; in the assay with PEER, 15.5.
For the compound `Cc1ccc(C(=O)Nc2ccc(CN3CCN(C)CC3)c(C(F)(F)F)c2)cc1C#Cc1cnc2cccnn12` [Ponatinib] (top concentration 1000 nM), the “selective drug sensitivity score” value in the assay on COG-LL-332h amounted to 17.6; in the assay with MHH-CALL-3 it was 10.7; with PEER it was 18.6.
With `C[C@]12C=CC(=O)C=C1CC[C@@H]1[C@@H]2[C@@H](O)C[C@@]2(C)[C@H]1CC[C@]2(O)C(=O)CO` [Prednisolone] (top concentration 10000 nM), the “selective drug sensitivity score” value is 2.5 in the assay with COG-LL-332h, 26.7 with MHH-CALL-3 and -3 in the assay on PEER.
As for `CC(C)(C)c1cc(NC(=O)Nc2ccc(-c3cn4c(n3)sc3cc(OCCN5CCOCC5)ccc34)cc2)no1` [Quizartinib] (top concentration 1000 nM), the “selective drug sensitivity score” value with COG-LL-332h was 2.78; in the assay with MHH-CALL-3, -1.52; in the assay on PEER it was -0.02.
Turning to `Nc1cc(F)ccc1NC(=O)/C=C/c1cnn(C/C=C/c2ccccc2)c1` [RGFP966] (top concentration 10000 nM), the “selective drug sensitivity score” value came out at 15.7 in the assay with COG-LL-332h, 12.3 with MHH-CALL-3 and 10.2 with PEER.
For the compound `CNC(=O)c1cc(Oc2ccc(NC(=O)Nc3ccc(Cl)c(C(F)(F)F)c3)c(F)c2)ccn1` [Regorafenib] (top concentration 10000 nM), the “selective drug sensitivity score” value in the assay with COG-LL-332h is 6.74; in the assay with MHH-CALL-3, -1.56; with PEER, 7.64.
`CN(C)Cc1ccc(S(=O)(=O)n2ccc(/C=C/C(=O)NO)c2)cc1` [Resminostat] (top concentration 10000 nM): the “selective drug sensitivity score” value was 1.34 in the assay on COG-LL-332h, 11.7 with MHH-CALL-3 and 8.24 with PEER.
With `COc1cc(OC)c(/C=C/S(=O)(=O)Cc2ccc(OC)c(NCC(=O)O)c2)c(OC)c1` [Rigosertib] (top concentration 10000 nM), the “selective drug sensitivity score” value in the assay on COG-LL-332h came to 15.8; with MHH-CALL-3 it was 13.4; in the assay on PEER, 15.9.
In the case of `COc1ccc(CCc2nc3cc(-c4c(C)noc4C)ccc3n2C[C@H](C)N2CCOCC2)cc1Cl` [SGC-CBP30] (top concentration 25000 nM), the “selective drug sensitivity score” value in the assay on COG-LL-332h was 0.28; in the assay on MHH-CALL-3, 9.48; with PEER, 4.08.
`CCS(=O)(=O)c1cccc(-c2cc(C(=O)NC3CCN(C)CC3)c(C)c3[nH]c4ncc(C)cc4c23)c1` [TAK-901] (top concentration 1000 nM): the “selective drug sensitivity score” value in the assay with COG-LL-332h was found to be 11.3; in the assay with MHH-CALL-3 it was 6.66; with PEER it was 12.4.
The corresponding values for `Nc1nc(NC2CC2)cc(-c2cccc(Cl)c2Cl)n1` [TH588] (top concentration 25000 nM) are 6.82, -0.58 and 12.
As to `CC(=O)Nc1ccc(C(=O)Nc2ccccc2N)cc1` [Tacedinaline] (top concentration 1000 nM), the figures for the “selective drug sensitivity score” value in the assay on COG-LL-332h, in the assay with MHH-CALL-3 and in the assay on PEER were -0.02, 1.58 and 0.68, respectively.
In the case of `Cn1ncnc1[C@H]1c2n[nH]c(=O)c3cc(F)cc(c23)N[C@@H]1c1ccc(F)cc1` [Talazoparib] (top concentration 1000 nM), the “selective drug sensitivity score” value was 6.58 in the assay with COG-LL-332h, 20.3 in the assay with MHH-CALL-3 and -3.72 in the assay on PEER.
Consider `COc1cccc2c1c(O)c(C(=O)N(C)c1ccc(C(F)(F)F)cc1)c(=O)n2C` [Tasquinimod] (top concentration 10000 nM), for which the figures for the “selective drug sensitivity score” value in the assay with COG-LL-332h, in the assay on MHH-CALL-3 and with PEER were 0.48, -0.42 and -0.32, respectively.
With `Nc1nc2[nH]cnc2c(=S)[nH]1` [Thioguanine] (top concentration 10000 nM), the “selective drug sensitivity score” value in the assay on COG-LL-332h is 14.5; with MHH-CALL-3, -1.36; in the assay with PEER it was 13.1.
As for `CC#CC(=O)N1CC[C@@H](n2c(=O)n(-c3ccc(Oc4ccccc4)cc3)c3c(N)ncnc32)C1` [Tirabrutinib] (top concentration 1000 nM), the “selective drug sensitivity score” value in the assay with COG-LL-332h worked out at 1.8; in the assay with MHH-CALL-3, 1.7; in the assay with PEER it was 0.
In the case of `CC(C)C[C@@H](C(=O)N[C@H](C(=O)OC1CCCC1)c1ccccc1)[C@H](O)C(=O)NO` [Tosedostat] (top concentration 10000 nM), the “selective drug sensitivity score” value was found to be 2.26 in the assay with COG-LL-332h, 15.3 in the assay on MHH-CALL-3 and 0.06 in the assay on PEER.
In the case of `CS(=O)(=O)c1ccc(-c2cnc(N)c(C(=O)Nc3ccccc3)n2)cc1` [VE-821] (top concentration 10000 nM), the “selective drug sensitivity score” value was 4.74 in the assay with COG-LL-332h, -0.06 in the assay with MHH-CALL-3 and 0.54 with PEER.
In the same order, the values of `CNC(=O)c1ccccc1Nc1cc(Nc2ccc(N3CCOCC3)cc2OC)ncc1C(F)(F)F` [VS-4718] (top concentration 10000 nM) are -0.3, -5 and 3.6.
`Cc1cccc(-c2[nH]c(CNc3ccccc3F)nc2-c2ccc3ncnn3c2)n1` [Vactosertib (TEW-7197)] (top concentration 2500 nM): the “selective drug sensitivity score” value in the assay with COG-LL-332h is -0.2; in the assay with MHH-CALL-3, -0.5; in the assay with PEER, -0.5.
As to `O=C(/C=C\n1cnc(-c2cc(C(F)(F)F)cc(C(F)(F)F)c2)n1)NNc1ccccn1` [Verdinexor] (top concentration 1000 nM), the “selective drug sensitivity score” value in the assay with COG-LL-332h was 7.74; with MHH-CALL-3, 20.5; in the assay on PEER, 5.44.
With `CC[C@@H]1C(=O)N(C)c2cnc(Nc3ccc(C(=O)N[C@H]4CC[C@H](N5CCN(CC6CC6)CC5)CC4)cc3OC)nc2N1C(C)C` [Volasertib] (top concentration 1000 nM), the entries for the “selective drug sensitivity score” value with COG-LL-332h, with MHH-CALL-3 and in the assay on PEER were 12, 2.9 and 18.7, respectively.
The corresponding values for `O=C(CCCCCCC(=O)Nc1ccccc1)NO` [Vorinostat] (top concentration 10000 nM) are 3.4, 14.1 and 9.7.
